These results are taken from patent publication US12410179B2, “Modulators of TNF alpha activity and uses thereof” (RayThera, Inc., priority 2023, dated 2025).

For data set [1], the target named is T1, TNFα (Homo sapiens, UniProt P01375). Put plainly: HEK-Blue hTNFα reporter assay. The data set is classed as cell-based. Also noted: purchased R&D biosystem (R&D Systems) 210-TA-020/CF. The following applies: HEK-Blue hTNFα reporter cells; for Emax: read-out: TNFα reporter, Emax. Summed up: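 Compounds preincubated 1 h at 37 °C with recombinant hTNFα ([…]), then added to HEK293 NF-κB-SEAP reporter cells, 10000 cells/well, 24 h at 37 °C. SEAP read by QUANTI-Blue at OD620; % inhibition versus stimulated and unstimulated controls, IC50 by 4-parameter fit.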
(In a reporter assay the amount or activity of a reporter protein is the signal.)

Data set [2] has as its target T1, TNFα. Put plainly: TNFα human whole blood screening assay (CD11b on granulocytes, zymosan challenge). Also noted: a human whole blood assay driven by endogenously expressed TNFα; from tissue; host or cells: human whole blood. The following applies: human whole blood IC50 multiplied by unbound fraction from plasma protein binding; read-out: CD11b in hWB, free IC50. The format is cell-based. How it is done:
The compounds according to the Examples were assessed in a human whole blood assay driven by endogenously expressed TNFα by measuring the expression of CD11b on granulocytes in human whole blood challenged with zymosan. A serial diluted compound was pre-incubated with human whole blood for 1 h at 37° C./5% CO2. Zymosan (Invivogen, Tlrl-zyn) was added (final assay concentration […] in a total volume of 100 μl) with thorough mixing and incubated for 3 h at 37° C./5% CO2. The samples were then incubated with 10 μl antibody cocktail containing APC-conjugated anti-human CD45 antibody (Biolegend, cat #304012) and PE-conjugated anti-human CD11b antibody (Biolegend, cat #101208) for 30 min at 4° C. The blood was fixed/lysed for 10-15 min at 37° C. using FACS/lysing solution (BD sciences, cat #558049) and analyzed with CytoFlex S (Beckman Coulter). The number of single cells (SSC-A, SSC—W) positive for CD45 and expressing CD11b was determined using FlowJo software (BD Biosciences). Inhibition of CD11b activation was calculated against DMSO control. […]
A calculated IC50 for the free compound (free IC50) that considers the extent of fraction unbound in blood was determined by multiplying the IC50 generated from the human whole blood screening assay by the unbound fraction, generated from the plasma protein binding assay.

The test system of data set [3] is human induced pluripotent stem cell-derived cardiomyocytes (hiPSC-CMs). The following applies: 10 μM.
Description: The MEA study was designed to assess the in vitro inhibitory effect of compounds on extracellular field potential (EFP) of human induced pluripotent stem cell-derived cardiomyocytes (hiPSC-CMs) using the Maestro Pro multielectrode arrays system. The concentration response relationship was determined for each compound at 10 μM and 3 μM in duplicate to calculate the % change in EFP parameters.
hiPSC-CMs (Help Stem Cell Innovations Co.) were seeded in fibronectin-coated CytoView MEA 96-White plate at 20000 cells/well. The next day 2/3 of the plating medium volume was removed and replaced by maintenance media. Half of the maintenance medium was removed and replaced every 2 days. On day 6, compounds were made 2× final concentration (20 μM and 6 μM) in maintenance media. Half of the medium was removed from the wells and an equal volume of the appropriate treatment mix was added, and the EFP signal was recorded. […] Data that meet the above criteria for EFP recording quality were further analyzed as described in the following steps: […]
Axis Navigator 2.0.4. software was used to extract the peak current from the original data. The percentage of amplitude change from baseline was calculated using the following equation.
Two important readouts in MEA assay are used to evaluate risk of QT prolongation. […]
Data set [4] has as its target T1, TNFα. Put plainly: Human dermal fibroblast cell potency assay (IL-8 HTRF). The format is cell-based. Set-up: purchased R&D biosystem (R&D Systems) 210-TA-020/CF. To be noted: human dermal fibroblasts, hTNFα 10 ng/mL, 24 h; for Emax: read-out: HDF_IL-8, Emax; for IC50: read-out: HDF_IL-8, IC50. On the procedure: The potency of compounds was examined in Human dermal fibroblast cells (HDF). […] When used for assay, 40 μL of HDF suspension (2000 cell/well) was seeded into each well of 384-well plates (Corning 3764). After overnight culture, replenish fresh culture medium with 5% fetal bovine serum. A serial dilution of work solution of tested compound was made in DMSO with 1000× of final concentration, and 50 nL of compound DMSO solution was transferred into another set of 384-well plates by Echo, and incubated with 10 μL of recombinant hTNFα (R&D biosystem, Cat #210-TA-020/CF) for 1 h at 37° C. The compound/hTNFα mixture was then transferred to the 384-plate containing HDF, and then incubated at 37° C. with 5% CO2 for 24 h. The final concentration of hTNFα is 10 ng/mL.
After incubation, 16 μL of induced cell supernatant was transferred to a new 384-well Optiplate well to mix with 4 μL of IL-8 antibody cocktail (Revvity #62HIL08PEH). After overnight incubation, the plate was read using EnSight™ Multimode Microplate Reader (Perkin Elmer) for HTRF signal.
The percentage of inhibition was calculated by the following formula: % inhibition=(positive control−Sample)/(positive control−negative control)*100
Positive control: HTRF reading of cells with hTNFα stimulation.
Negative control: HTRF reading of cells without hTNFα stimulation.
Sample: HTRF reading of cells with compound at specific concentration and hTNFα stimulation
The % inhibition was plotted against compound concentration in logarithmic scale and the IC50 was rendered using 4-parameter nonlinear regression (GraphPad Prism).

Molecules are shown by their SMILES.

In general, Emax refers to the size of the effect at its maximum, as opposed to the concentration needed. Usually IC50 stands for the concentration needed to halve the response being measured.

T1 sequence (P01375 77-233 limits assumed): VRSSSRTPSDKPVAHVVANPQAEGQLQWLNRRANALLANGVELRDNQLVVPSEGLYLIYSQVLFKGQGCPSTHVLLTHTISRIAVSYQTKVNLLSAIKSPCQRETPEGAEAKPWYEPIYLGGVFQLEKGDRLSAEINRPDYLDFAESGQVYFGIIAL

Consider `CN1C(=O)c2cccc(OC(F)F)c2[C@H]2C[C@@H]1c1nc3ccc(-c4cnc(C5(N)CCC5)nc4)cc3n12` [Comp. Ex #1, reference compound], for which the maximal response (Emax) in data set [1] was 96%; in data set [4], 93%. The concentration for half-maximal inhibition (IC50) in data set [1] (read-out: TNFα reporter, IC50) worked out at 4.8 nM; in data set [2] it was 9.3 nM; in data set [4], 6.7 nM. Further, the “Cardiomyocytes FPDc prolong.” value in data set [3] is listed as greater than 20%. In data set [3], the “EAD (early afterdepolarization)” value is reported as “EAD”.
As for `CN1C(=O)c2cccc(OC(F)F)c2[C@H]2C[C@@H]1c1nn3ccc(-c4cnc(C5(N)CCC5)nc4)cc3c12` [Example 15], the 50% inhibitory concentration (IC50) in data set [1] (SEAP readout, read-out: IC50 Range) was less than 25 nM; in data set [1] (read-out: TNFα reporter, IC50) it was 4.1 nM; in data set [2] it was 2.1 nM; in data set [4], 2.8 nM. In addition, the maximal response (Emax) in data set [1] was 95%; in data set [4] it was 97%.
